Consider 1 compound from PMC2790544 (Biochemistry, 2009).

The experiment deals with Sec(GLP1TM4-5)R. Kind of experiment: cAMP response. Type of experiment: cell-based, human. To be noted: COS cells, LANCE, basal 2.1±0.5. A general note: Time-resolved FRET reads energy transfer from a long-lived donor to a nearby acceptor.

As for `CC(C)C[C@H](NC(=O)CNC(=O)[C@H](CCC(N)=O)NC(=O)[C@H](CC(C)C)NC(=O)[C@H](CC(C)C)NC(=O)[C@H](CCCNC(=N)N)NC(=O)[C@H](CCC(N)=O)NC(=O)[C@H](CC(C)C)NC(=O)[C@H](CCCNC(=N)N)NC(=O)[C@H](C)NC(=O)CNC(=O)[C@H](CCC(=O)O)NC(=O)[C@H](CCCNC(=N)N)NC(=O)[C@H](CC(C)C)NC(=O)[C@H](CCCNC(=N)N)NC(=O)[C@H](CO)NC(=O)[C@H](CC(C)C)NC(=O)[C@H](CCC(=O)O)NC(=O)[C@H](CO)NC(=O)[C@@H](NC(=O)[C@H](Cc1ccccc1)NC(=O)[C@@H](NC(=O)CNC(=O)[C@H](CC(=O)O)NC(=O)[C@H](CO)NC(=O)[C@@H](N)Cc1c[nH]cn1)[C@@H](C)O)[C@@H](C)O)C(=O)N[C@H](C(N)=O)C(C)C` [secretin], the “maximal cAMP level (Emax)” value was 149±15 picomoles per million cells.
